Source: PubChem BioAssay AID2060610 (Molecular Pharmacology Branch, DTP, NCI, 2025)
Where “and” joins values, the source holds several entries; their conditions need not be identical. Identical values can stand only once.

System: 616215-338-R-J1-PDC complex spheroids, viability % test/control
Test: Anticancer human tumor 616215-338-R-J1-PDC patient-derived colon adenocarcinoma cell line growth inhibition [CLK]
Conditions: for viability, T/C: stronger effect = lower value
Summary of the method: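 Multi-cell-type spheroids combined patient-derived tumor cells with HUVEC endothelial cells and human mesenchymal stem cells. Paired agents were dosed in half-log steps down from about clinical Cmax, or from 10 microM where Cmax was unknown.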

[1] = curve of first compound, second compound 0.0316 µM
[2] = curve of first compound, second compound 0.1 µM
[3] = curve of first compound, second compound 0.316 µM
[4] = curve of first compound, second compound 1 µM
[5] = curve of first compound, second compound 3.16 µM
[6] = curve of first compound, second compound 10 µM
[7] = second compound 0.0316 µM, first compound 0.0316 µM
[8] = second compound 0.0316 µM, first compound 0.1 µM
[9] = second compound 0.0316 µM, first compound 0.316 µM
[10] = second compound 0.0316 µM, first compound 1 µM
[11] = second compound 0.1 µM, first compound 0.0316 µM
[12] = second compound 0.1 µM, first compound 0.1 µM
[13] = second compound 0.1 µM, first compound 0.316 µM
[14] = second compound 0.1 µM, first compound 1 µM
[15] = second compound 0.316 µM, first compound 0.0316 µM
[16] = second compound 0.316 µM, first compound 0.1 µM
[17] = second compound 0.316 µM, first compound 0.316 µM
[18] = second compound 0.316 µM, first compound 1 µM
[19] = second compound 1 µM, first compound 0.0316 µM
[20] = second compound 1 µM, first compound 0.1 µM
[21] = second compound 1 µM, first compound 0.316 µM
[22] = second compound 1 µM, first compound 1 µM
[23] = second compound 3.16 µM, first compound 0.0316 µM
[24] = second compound 3.16 µM, first compound 0.1 µM
[25] = second compound 3.16 µM, first compound 0.316 µM
[26] = second compound 3.16 µM, first compound 1 µM
[27] = second compound 10 µM, first compound 0.0316 µM
[28] = second compound 10 µM, first compound 0.1 µM
[29] = second compound 10 µM, first compound 0.316 µM
[30] = second compound 10 µM, first compound 1 µM
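Further: spheroids exposed to agents for 7 days.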
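Wherever viability, T/C is given: 100% = DMSO vehicle wells.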

In the case of `CC(Nc1ccc2c(c1)OCCn1cc(N3C(=O)OCC3C(F)F)nc1-2)C(N)=O` (centres undefined) + CN1CCN(c2cc(C(=O)Nc3cc4cc(-c5cnn(C)c5)ccc4cn3)ccn2)CC1, the IC50 [1] is reported as > 10000 nM, the IC50 [2] is reported as 1980 nM and the IC50 [3] is reported as < 31.6 nM. For the same compound, the IC50 [4] was < 31.6 nM, the IC50 [5] was < 31.6 nM and the IC50 [6] was < 31.6 nM. For the same compound, the viability, T/C [7] was 94.6%, the viability, T/C [8] was 108% and the viability, T/C [9] was 101%. For the same compound, the viability, T/C [10] was 92%, the viability, T/C (second compound 0.0316 µM, first compound 3.16 µM) was 78.3% and the viability, T/C (second compound 0.0316 µM, first compound 10 µM) was 52.4%. For the same compound, the viability, T/C [11] was 105%, the viability, T/C [12] was 97.9% and the viability, T/C [13] was 75%. The viability, T/C [14] was 59.2%, the viability, T/C (second compound 0.1 µM, first compound 3.16 µM) was 44.7% and the viability, T/C (second compound 0.1 µM, first compound 10 µM) was 38%. For the same compound, the viability, T/C [15] was 26.2%, the viability, T/C [16] was 22% and the viability, T/C [17] was 17.6%. It also gave a viability, T/C [18] of 13.8%, a viability, T/C (second compound 0.316 µM, first compound 3.16 µM) of 12.9% and a viability, T/C (second compound 0.316 µM, first compound 10 µM) of 10.4%. For the same compound, the viability, T/C [19] was 0.14%, the viability, T/C [20] was 0.18% and the viability, T/C [21] was 0.22%. The viability, T/C [22] was 0.1%, the viability, T/C (second compound 1 µM, first compound 3.16 µM) was 0.88% and the viability, T/C (second compound 1 µM, first compound 10 µM) was 0.09%. The viability, T/C [23] was 0.11%, the viability, T/C [24] was 0.15% and the viability, T/C [25] was 1.65%. It also gave a viability, T/C [26] of 1.21%, a viability, T/C (second compound 3.16 µM, first compound 3.16 µM) of 1.32% and a viability, T/C (second compound 3.16 µM, first compound 10 µM) of 1.75%. For the same compound, the viability, T/C [27] was 0.13%, the viability, T/C [28] was 0.18% and the viability, T/C [29] was 1.39%. It also gave a viability, T/C [30] of 0.23%, a viability, T/C (second compound 10 µM, first compound 3.16 µM) of 0.22% and a viability, T/C (second compound 10 µM, first compound 10 µM) of 0.23%.
In the case of `Cn1ncnc1[C@H]1c2n[nH]c(=O)c3cc(F)cc(c23)N[C@@H]1c1ccc(F)cc1`, the viability, T/C (compound 0.000316 µM) is reported as 92% and 98.4%, the viability, T/C (compound 0.001 µM) is reported as 105% and 97.6% and the viability, T/C (compound 0.00316 µM) is reported as 102% and 94.1%. The viability, T/C (compound 0.01 µM) was 95% and 95.3%, the viability, T/C (compound 0.0316 µM) was 116% and 114% and the viability, T/C (compound 0.1 µM) was 106% and 116%. The IC50 (curve of compound) was > 100 nM.
With `C=CC(=O)Nc1cc(Nc2nccc(-c3cn(C)c4ccccc34)n2)c(OC)cc1N(C)CCN(C)C` the viability, T/C (compound 0.000949 µM) was 108% and 95%, the viability, T/C (compound 0.003 µM) was 93.5% and 105% and the viability, T/C (compound 0.00949 µM) was 107% and 85.4%. For the same compound, the viability, T/C (compound 0.03 µM) was 95.3% and 86.5%, the viability, T/C (compound 0.0949 µM) was 134% and 90.5% and the viability, T/C (compound 0.3 µM) was 100% and 111%. For the same compound, the IC50 (curve of compound) was > 300 nM.
In the case of `CCc1c2c(nc3ccc(O)cc13)-c1cc3c(c(=O)n1C2)COC(=O)[C@]3(O)CC`, the viability, T/C (compound 0.00316 µM) is reported as 110% and 111%, the viability, T/C (compound 0.01 µM) is reported as 69.5% and 63.4% and the viability, T/C (compound 0.0316 µM) is reported as 36.6% and 33.2%. For the same compound, the viability, T/C (compound 0.1 µM) was 17.5% and 24.2%, the viability, T/C (compound 0.316 µM) was 11% and 16.1% and the viability, T/C (compound 1 µM) was 5.51% and 7.45%. The IC50 (curve of compound) was 19.8 nM and 17.4 nM.
With `CCN1CCN(Cc2ccc(Nc3ncc(F)c(-c4cc(F)c5nc(C)n(C(C)C)c5c4)n3)nc2)CC1` the viability, T/C (compound 0.00316 µM) was 104% and 92%, the viability, T/C (compound 0.01 µM) was 125% and 93.7% and the viability, T/C (compound 0.0316 µM) was 111% and 103%. For the same compound, the viability, T/C (compound 0.1 µM) was 139% and 121%, the viability, T/C (compound 0.316 µM) was 158% and 189% and the viability, T/C (compound 1 µM) was 59.4% and 69.7%. The IC50 (curve of compound) was > 1000 nM.
For `Nc1ccccc1NC(=O)c1ccc(CNC(=O)OCc2cccnc2)cc1`, the viability, T/C (compound 0.0316 µM) was 102% and 86.2%, the viability, T/C (compound 0.1 µM) was 98.2% and 95.1% and the viability, T/C (compound 0.316 µM) was 101% and 81.6%. The viability, T/C (compound 1 µM) was 107% and 92.8%, the viability, T/C (compound 3.16 µM) was 55.6% and 80.4% and the viability, T/C (compound 10 µM) was 13.5% and 14.7%. For the same compound, the IC50 (curve of compound) was 3690 nM and 5380 nM.
With `CCN1CCN(Cc2ccc(Nc3ncc(F)c(-c4cc(F)c5nc(C)n(C(C)C)c5c4)n3)nc2)CC1` + CN1CCN(c2cc(C(=O)Nc3cc4cc(-c5cnn(C)c5)ccc4cn3)ccn2)CC1 the IC50 [1] was 951 nM, the IC50 [2] was 885 nM and the IC50 [3] was < 3.16 nM. For the same compound, the IC50 [4] was < 3.16 nM, the IC50 [5] was < 3.16 nM and the IC50 [6] was < 3.16 nM. It also gave a viability, T/C (second compound 0.0316 µM, first compound 0.00316 µM) of 111%, a viability, T/C (second compound 0.0316 µM, first compound 0.01 µM) of 105% and a viability, T/C [7] of 112%. It also gave a viability, T/C [8] of 149%, a viability, T/C [9] of 175% and a viability, T/C [10] of 46.2%. The viability, T/C (second compound 0.1 µM, first compound 0.00316 µM) was 114%, the viability, T/C (second compound 0.1 µM, first compound 0.01 µM) was 131% and the viability, T/C [11] was 116%. For the same compound, the viability, T/C [12] was 154%, the viability, T/C [13] was 120% and the viability, T/C [14] was 41.6%. For the same compound, the viability, T/C (second compound 0.316 µM, first compound 0.00316 µM) was 32.6%, the viability, T/C (second compound 0.316 µM, first compound 0.01 µM) was 32.6% and the viability, T/C [15] was 37.6%. For the same compound, the viability, T/C [16] was 48.6%, the viability, T/C [17] was 42.6% and the viability, T/C [18] was 12.8%. The viability, T/C (second compound 1 µM, first compound 0.00316 µM) was 0.15%, the viability, T/C (second compound 1 µM, first compound 0.01 µM) was 0.73% and the viability, T/C [19] was 1.7%. The viability, T/C [20] was 0.2%, the viability, T/C [21] was 2.07% and the viability, T/C [22] was 1.73%. For the same compound, the viability, T/C (second compound 3.16 µM, first compound 0.00316 µM) was 0.15%, the viability, T/C (second compound 3.16 µM, first compound 0.01 µM) was 0.16% and the viability, T/C [23] was 0.15%. The viability, T/C [24] was 0.13%, the viability, T/C [25] was 0.76% and the viability, T/C [26] was 0.18%. The viability, T/C (second compound 10 µM, first compound 0.00316 µM) was 0.2%, the viability, T/C (second compound 10 µM, first compound 0.01 µM) was 0.19% and the viability, T/C [27] was 2.8%. For the same compound, the viability, T/C [28] was 0.2%, the viability, T/C [29] was 3.09% and the viability, T/C [30] was 0.2%.
